Data reported in publication PMC10445290, “Enantiomeric Fractions Reveal Differences in the Atropselective Disposition of 2,2′,3,5′,6-Pentachlorobiphenyl (PCB 95) in Wildtype, Cyp2abfgs-Null, and CYP2A6-Humanized Mice” (Chemical Research in Toxicology, 2023).
Like-named read-outs stand apart in the source and are kept apart here.

Experiments:
[1] = Atropisomeric analysis of PCB 95 (enantiomeric fraction, EF) in tissues by chiral GC-ECD; assay type: in vivo, mice; conditions: racemic PCB 95 1.0 mg/kg oral, 24 h, EF = AE1/(AE1 + AE2)
Description: Adult male and female wild-type (WT) C57BL/6 mice, KO, and KI mice (4 months old) were exposed to racemic PCB 95. Mice were randomly assigned to exposure groups and received a single oral dose of PCB 95 (1.0 mg/kg) in stripped corn oil (10 mL/kg; lot# A0395699; cat# 801-03-7; Fisher Scientific) via gavage (5–7 mice per group). Control animals received corn oil alone (1–3 mice per group) to assess the potential background contamination with PCB 95. Animals were euthanized 24 h after PCB 95 exposure. Blood was collected from the heart and placed in pre-weighed glass vials with 80 μL of ethylenediaminetetraacetic acid solution (EDTA, 7.5%, w/w). The amount of blood in each vial was determined by weight prior to sample extraction. Adipose, brain, and liver tissues were excised from each animal and individually wrapped in aluminum foil. Samples were stored at −80 °C in separate plastic bags and shipped on dry ice to the University of Iowa for analysis.
Atropisomeric analyses of PCB 95 were performed with all samples using an Agilent 7890A gas chromatograph with a ^63Ni-μECD detector and a Chiralsil-Dex CB (25 m length, 250 μm inner diameter, 0.25 μm film thickness; Agilent, Santa Clara, CA, USA) following a published method with modifications.[48] The following temperature program was used for the atropisomeric analysis: 50 °C, hold for 1 min, 10 °C/min to 150 °C, hold for 65 min, 15 °C/min to 200 °C, and hold for 15 min. The injector and detector temperature was 250 °C, and the helium flow was 3.0 mL/min. The EF values of PCB 95 were calculated as EF = AE1/(AE1 + AE2) where AE1 and AE2 are the peak area of the first (E1) and the second eluting (E2) atropisomers, respectively. E1- and E2-PCB 95 correspond to aR- and aS-PCB 95, respectively.[16],[25]
Method blanks, blank tissue samples, and an ongoing precision and recovery standard were extracted in parallel with each sample batch. The method detection limits (MDLs) were determined based on method blanks (Table S3). Limits of quantification (LOQ) in different matrices were established based on the corresponding tissue blanks (Table S3). Surrogate standards, PCB 117 and 4′-159, were added to all samples to assess the precision and reproducibility of the analytical methods (Table S4). In addition, an ongoing precision and surrogate standard was in parallel extracted from both method and tissue blanks with each sample batch (Table S5). The resolution of atropisomers of PCB 95 on the Chiralsil Dex CB column was 1.27, calculated with the formula Rs = [tE2 – tE1)/(0.5 × (WE1 + WE2)], where tE1 and tE2 are the retention times of peaks 1 and 2, and WE1 and WE2 indicate the width of the peak E1 and E2. The EF value of the racemic standard of PCB 95 was 0.498 ± 0.004 (n = 7).
Levels of PCB 95 and its metabolites, expressed as ng per gram wet weight (ng/g), and EF values are reported as mean ± standard deviation (Tables S6 and S7). The statistical analyses were performed with two-way ANOVA with the Bonferroni model in GraphPad Prism 9.4.1 (Tables S8 and S9). In addition, OH-PCB metabolite profiles were compared using the similarity coefficient, cos θ (Tables S10 and S11).[49] The cos θ ranges from 0 to 1, where a value of 0 indicates completely different profiles and a value of 1 indicates identical profiles. The original data underlying this study are openly available through the Iowa Research Online repository at https://doi.org/10.25820/data.006613.

[2] = cited from earlier work
[3] = cited from earlier work; remark: listed apart in the source
[4] = FKI, female CYP2A6-humanized mice
[5] = FKO, female Cyp2abfgs-null mice
[6] = MKI, male CYP2A6-humanized mice
[7] = collected in 2001 from Japanese women

## Clc1ccc(Cl)c(-c2c(Cl)ccc(Cl)c2Cl)c1 [PCB 95, 2,2′,3,5′,6-pentachlorobiphenyl]
[1]; [4]
  Enantiomeric fraction (EF) in adipose: 0.35 ± 0.02
  Enantiomeric fraction (EF) in blood: 0.28 ± 0.07
  Enantiomeric fraction (EF) in brain: 0.29 ± 0.01
  Enantiomeric fraction (EF) in liver: 0.24 ± 0.03
[1]; [5]
  Enantiomeric fraction (EF) in adipose: 0.41 ± 0.05
  Enantiomeric fraction (EF) in blood: 0.37 ± 0.07
  Enantiomeric fraction (EF) in brain: 0.39 ± 0.05
  Enantiomeric fraction (EF) in liver: 0.32 ± 0.06
[1]; FWT, female wildtype mice
  Enantiomeric fraction (EF) in adipose: 0.33 ± 0.02
  Enantiomeric fraction (EF) in blood: 0.32 ± 0.07
  Enantiomeric fraction (EF) in brain: 0.25 ± 0.03
  Enantiomeric fraction (EF) in liver: 0.20 ± 0.03
[1]; [6]
  Enantiomeric fraction (EF) in adipose: 0.36 ± 0.02
  Enantiomeric fraction (EF) in blood: 0.31 ± 0.03
  Enantiomeric fraction (EF) in brain: 0.32 ± 0.02
  Enantiomeric fraction (EF) in liver: 0.27 ± 0.03
[1]; MKO, male Cyp2abfgs-null mice
  Enantiomeric fraction (EF) in adipose: 0.38 ± 0.03
  Enantiomeric fraction (EF) in blood: 0.35 ± 0.04
  Enantiomeric fraction (EF) in brain: 0.34 ± 0.03
  Enantiomeric fraction (EF) in liver: 0.28 ± 0.04
[1]; MWT, male wildtype mice
  Enantiomeric fraction (EF) in adipose: 0.37 ± 0.01
  Enantiomeric fraction (EF) in blood: 0.28 ± 0.02
  Enantiomeric fraction (EF) in brain: 0.31 ± 0.02
  Enantiomeric fraction (EF) in liver: 0.26 ± 0.02
[2]; corresponding dams, exposure via diet through gestation and lactation
  Mean PCB 95 blood level: 16 ng/g
[2]; corresponding offspring on postnatal day 21
  PCB 95 levels in the liver: 150 ng/g wet weight
[2]; dams euthanized on postnatal day 21
  PCB 95 levels in brain: 47 ng/g
[2]; dams exposed during gestation and lactation, high dose 6.0 mg/kg bw/d
  PCB 95 levels in adipose tissue: 11,600 ng/g
[2]; dams exposed during gestation and lactation, low dose 0.1 mg/kg bw/d
  PCB 95 levels in adipose tissue: 170 ng/g
[2]; dams exposed orally during gestation and lactation, high dose 6.0 mg/kg bw/d
  PCB 95 levels in blood: 52 ng/g
[2]; dams exposed orally during gestation and lactation, low dose 0.1 mg/kg bw/d
  PCB 95 levels in blood: not detected
[2]; dams exposed throughout gestation and lactation
  PCB 95 levels in the liver: 120 ng/g wet weight
[2]; dams exposed to racemic PCB 95 during gestation and lactation, high dose 6.0 mg/kg bw/d
  PCB 95 levels in the liver: 700 ng/g
[2]; dams exposed to racemic PCB 95 during gestation and lactation, low dose 0.1 mg/kg bw/d
  PCB 95 levels in the liver: 12 ng/g
[2]; female mice, sub-chronic oral exposure, 0.1 mg/kg bw/d
  PCB 95 levels in adipose tissue: 1800 ng/g
[2]; female mice, sub-chronic oral exposure, 6.0 mg/kg bw/d
  PCB 95 levels in adipose tissue: 47,000 ng/g
[2]; female mice, subchronic oral exposure, 0.1 mg/kg bw/d
  PCB 95 levels in blood: 90 ng/g
[2]; female mice, subchronic oral exposure, 6.0 mg/kg bw/d
  PCB 95 levels in blood: 1200 ng/g
[2]; mice exposed orally to different doses throughout pregnancy, below the detection limit
  PCB 95 levels in brain: < 140 ng/g
[2]; offspring of pregnant mice exposed developmentally, postnatal day 7
  PCB 95 levels in brain: 50 ng/g
[2]; offspring of pregnant mice exposed developmentally, postnatal day 21
  PCB 95 levels in brain: 70 ng/g
[2]; postnatal day 21 pups exposed throughout gestation and lactation via the maternal diet
  PCB 95 levels in blood: 36 ng/g
[3]; MARBLES cohort, detected in only one sample
  PCB 95 concentration in maternal serum: 0.1 ng/g wet weight
[3]; collected 2008 to 2009 during abdominal operations, Southeast China
  PCB 95 in human adipose tissue: below the limit of detection
[3]; [7]
  PCB 95 in breast adipose tissue: below the detection limit
  PCB 95 in serum: below the detection limit
[3]; older donors aged 58 to 80, United States
  Average PCB 95 levels in postmortem brain tissues: 0.13 ng/g
[3]; small human cohort from Belgium (N = 11)
  PCB 95 in human liver samples: below the limit of detection
[3]; younger donors aged 0 days to 1 year
  PCB 95 in postmortem brain tissues: not detected
